Experimental data from ChEMBL document CHEMBL1153028, “QSAR study on maximal inhibition (Imax) of quaternary ammonium antagonists for S-(-)-nicotine-evoked dopamine release from dopaminergic nerve terminals in rat striatum” (Bioorg Med Chem, 2009).
Numbered stars: 1 amine (or outer) side, 2 acyl side, 3 side chain; on linkers, the order of the positions; unused ones are H or OH. Bridge positions count the residues as written; N and C are the ends. Peptide text beside a SMILES is read from it. X1 = NC(=O)[C@@H](CN[*:2])CS[*:1]

target: Neuronal acetylcholine receptor subunit alpha-6 (Mus musculus) (UniProt Q9R0W9); assay: Displacement of [3H]epibatidine from nAChRalpha6 in mouse brain by autoradiography; assay type: tissue-based
Sequence (Q9R0W9 whole entry): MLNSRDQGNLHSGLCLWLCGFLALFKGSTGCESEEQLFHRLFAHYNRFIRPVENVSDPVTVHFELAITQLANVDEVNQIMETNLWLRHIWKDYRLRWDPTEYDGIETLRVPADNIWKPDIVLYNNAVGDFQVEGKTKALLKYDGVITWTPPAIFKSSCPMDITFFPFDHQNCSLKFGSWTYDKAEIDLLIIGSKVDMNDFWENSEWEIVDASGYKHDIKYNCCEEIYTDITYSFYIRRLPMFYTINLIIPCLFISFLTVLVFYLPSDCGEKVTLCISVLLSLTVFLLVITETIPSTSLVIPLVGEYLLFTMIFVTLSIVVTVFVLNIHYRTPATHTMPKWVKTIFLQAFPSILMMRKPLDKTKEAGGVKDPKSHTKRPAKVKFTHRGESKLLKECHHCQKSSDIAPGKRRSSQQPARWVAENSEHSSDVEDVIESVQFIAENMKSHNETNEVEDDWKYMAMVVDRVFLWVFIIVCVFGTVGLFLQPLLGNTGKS

For `CC(C)C[C@@H]1NC(=O)[C@H](CC(N)=O)NC(=O)[C@H](CO)NC(=O)[C@H](Cc2cnc[nH]2)NC(=O)[C@H](CCC(=O)O)NC(=O)[C@H](CC(C)C)NC(=O)[C@H](Cc2cnc[nH]2)NC(=O)[C@@H]2CSSC[C@H](NC(=O)CN)C(=O)N[C@@H](CSSC[C@@H](C(N)=O)CNC1=O)C(=O)N[C@@H](CO)C(=O)N[C@@H](CC(N)=O)C(=O)N1CCC[C@H]1C(=O)N[C@@H](C(C)C)C(=O)N2` (H-GCCSNPVCHLEHSNL; disulfide 2-8; linker 3-C via X1), the Imax was 62%.

system: not listed separately; assay: Antagonist activity at nAChR in Sprague-Dawley rat striatal slices assessed as inhibition of S(-)-nicotine-evoked [3H]dopamine overflow at 100 uM by liquid scintillation counting; assay type: functional

Point of comparison: `CCCCCCCCC[n+]1cccc2c1CC[C@@H]1CCN(C)[C@H]21.[I-]`, Imax 86%. Against it:
- Cc1ccc[n+](CCCCCCCCCC[n+]2cccc(C)c2)c1.[I-].[I-] — lower, 63%
- CN1CCC[C@@H]1c1ccc[n+](CCCCCCCCCCCC[n+]2cccc([C@@H]3CCCN3C)c2)c1.[Br-].[Br-] — lower, 38%
- CCCCCCCC[n+]1cccc([C@@H]2CCCN2C)c1.[I-] — higher, 88%
- CCCCCCCCCCCCCCC[n+]1ccccc1.[I-] — lower, 58%
- C=CCCCCCCCCC[n+]1cccc([C@@H]2CCCN2C)c1.[Br-] — higher, 87%
- [Br-].[Br-].c1ccc2c(c1)ccc[n+]2CCCCCCCCCCCC[n+]1cccc2ccccc21 — lower, 52%
- CCCC[n+]1cccc([C@@H]2CCCN2C)c1.[I-] — lower, 80%
- CCCCCCCCCCCC[n+]1ccc2c(c1)[C@H]1[C@@H](CC2)CCN1C.[I-] — lower, 62%
- CCCCCCC[n+]1ccccc1.[I-] — lower, 0%
- CNC1(C)C2CCC(C2)C1(C)C (configuration not stated) [MECAMYLAMINE] — higher, 91%
- [Br-].[Br-].c1cc[n+](CCCCCCCCCCCC[n+]2ccccc2)cc1 — higher, 91%
- CCCCCCCC[n+]1ccccc1.[I-] — lower, 0%
- CCCCCCCCCCC[n+]1ccc2c(c1)[C@H]1[C@@H](CC2)CCN1C.[I-] — lower, 72%
- [I-].[I-].c1ccc2c[n+](CCCCCCCC[n+]3ccc4ccccc4c3)ccc2c1 — lower, 74%
- CCCCCCCCC[n+]1ccc2c(c1)[C@H]1[C@@H](CC2)CCN1C.[I-] — lower, 56%
- [Br-].[Br-].c1ccc2c[n+](CCCCCCCCCCCC[n+]3ccc4ccccc4c3)ccc2c1 — lower, 53%
- CCCCCCCCCC[n+]1ccc2c(c1)[C@H]1[C@@H](CC2)CCN1C.[I-] — lower, 67%
- C=CC[n+]1cccc([C@@H]2CCCN2C)c1.[I-] — lower, 0%
- Cc1ccc[n+](CCCCCCCCCCCC[n+]2cccc(C)c2)c1.[Br-].[Br-] — lower, 78%
- CN(C)C1CCCc2ncccc21.Cl (configuration not stated) — lower, 53%
- CCCCCCC[n+]1cccc([C@@H]2CCCN2C)c1.[I-] — lower, 75%
- CCCC/C=C/CC[n+]1cccc([C@@H]2CCCN2C)c1.[Br-] — lower, 79%
- CC[n+]1ccccc1.[I-] — lower, 0%
- [Br-].[Br-].c1ccc2c(c1)ccc[n+]2CCCCCCCCC[n+]1cccc2ccccc21 — lower, 58%
- CCCCCC[n+]1ccccc1.[I-] — lower, 21%
- CCCCCCCCCCCCCCCCCCCC[n+]1ccccc1.[Br-] — lower, 60%
- Cc1ccc[n+](CCCCCCCC[n+]2cccc(C)c2)c1.[I-].[I-] — lower, 53%
- [I-].[I-].c1ccc2c[n+](CCCCCC[n+]3ccc4ccccc4c3)ccc2c1 — lower, 47%
- CN1CCC[C@H]1c1ccc[n+](Cc2ccccc2)c1.[Br-] — lower, 0%
- CCCC[n+]1ccccc1.[I-] — lower, 2%
- [Br-].[Br-].c1ccc2c[n+](CCCCCCCCCCC[n+]3ccc4ccccc4c3)ccc2c1 — lower, 55%
- Cl.NC1CCCc2ccncc21 (configuration not stated) — lower, 56%
- Cc1ccc[n+](CCCCCCCCCCC[n+]2cccc(C)c2)c1.[Br-].[Br-] — lower, 68%
- Cc1ccc[n+](CCCCCCCCC[n+]2cccc(C)c2)c1.[Br-].[Br-] — lower, 63%
- CCCCCCCCCC[n+]1cccc(C)c1.[I-] — lower, 73%
- [I-].[I-].c1cc[n+](CCCCCCCC[n+]2ccccc2)cc1 — lower, 0%
- CCCCC#CCC[n+]1cccc([C@@H]2CCCN2C)c1.[Br-] — lower, 47%
- CCCCCCCCCCCC[n+]1cccc([C@@H]2CCCN2C)c1.[I-] — higher, 95%
- CCCCCCCCC[n+]1cccc([C@@H]2CCCN2C)c1.[I-] — higher, 100%
- [I-].[I-].c1ccc2c(c1)ccc[n+]2CCCCCC[n+]1cccc2ccccc21 — lower, 55%
- CN1CCC[C@H]1c1ccc[n+](C)c1.[I-] — lower, 0%
- [Br-].[Br-].c1cc[n+](CCCCCCCCC[n+]2ccccc2)cc1 — lower, 28%
- CCCC/C=C\CC[n+]1cccc([C@@H]2CCCN2C)c1.[Br-] — lower, 83%
- CCCCCCCC[n+]1ccc2c(c1)[C@H]1[C@@H](CC2)CCN1C.[I-] — lower, 60%
- CCCCC/C=C/CCC[n+]1cccc([C@@H]2CCCN2C)c1.[Br-] — lower, 85%
- CCCCCCCCCCCC[n+]1cccc2c1CC[C@@H]1CCN(C)[C@H]21.[I-] — lower, 25%
- CCCCCCCCCCC[n+]1cccc2c1CC[C@@H]1CCN(C)[C@H]21.[I-] — lower, 79%
- Cc1ccc[n+](CCCCCCC[n+]2cccc(C)c2)c1.[Br-].[Br-] — lower, 54%
- C=CCCCCCC[n+]1cccc([C@@H]2CCCN2C)c1.[Br-] — higher, 87%
- CCCCCCCC[n+]1cccc2c1CC[C@@H]1CCN(C)[C@H]21.[I-] — higher, 88%
- CCCCCCCCCC[n+]1cccc2c1CC[C@@H]1CCN(C)[C@H]21.[I-] — higher, 93%
- CCC[n+]1ccccc1.[I-] — lower, 22%
- [I-].[I-].c1cc[n+](CCCCC[n+]2ccccc2)cc1 — lower, 0%
- [I-].[I-].c1cc[n+](CCCCCCCCCC[n+]2ccccc2)cc1 — lower, 27%
- CCCCCC[n+]1cccc([C@@H]2CCCN2C)c1.[I-] — lower, 80%
- Cl.NC1CCCc2ncccc21 (configuration not stated) — lower, 69%
- Cc1ccc[n+](CCCCCC[n+]2cccc(C)c2)c1.[I-].[I-] — lower, 7%
- [I-].[I-].c1ccc2c(c1)ccc[n+]2CCCCCCCCCC[n+]1cccc2ccccc21 — lower, 76%
- CCCCC[n+]1ccccc1.[I-] — lower, 44%
- CCC[n+]1cccc([C@@H]2CCCN2C)c1.[I-] — lower, 58%
- CCCCCCCCCCCC[n+]1cccc(C)c1.[I-] — lower, 63%
- CNC1CCCc2ccncc21.Cl (configuration not stated) — lower, 57%
- [I-].[I-].c1ccc2c[n+](CCCCCCCCCC[n+]3ccc4ccccc4c3)ccc2c1 — lower, 65%
- C[n+]1ccccc1.[I-] — lower, 0%
- C=CCCCCCCCC[n+]1cccc([C@@H]2CCCN2C)c1.[Br-] — lower, 72%
- [Br-].[Br-].c1ccc2c[n+](CCCCCCCCC[n+]3ccc4ccccc4c3)ccc2c1 — lower, 0%
- CCCCCCC#CCC[n+]1cccc([C@@H]2CCCN2C)c1.[Br-] — lower, 29%
- CN(C)C1CCCc2ccncc21.Cl (configuration not stated) — lower, 68%
- [I-].[I-].c1ccc2c(c1)ccc[n+]2CCCCCCCC[n+]1cccc2ccccc21 — lower, 71%
- CNC1CCCc2ncccc21.Cl (configuration not stated) — higher, 87%
